The results in this text go back to patent US20220153734A1, “Pyrazolopyridine Compounds For IRE1 Inhibition” (Optikira, LLC, priority 2019, published 2022).

The term IC50 denotes the concentration needed to halve the response being measured. Low values mean inhibition by little substance, high ones a need for much substance.

Assay [1] deals with T1, IRE1α (Homo sapiens, UniProt O75460).
T1 construct: purchased Signal Chem E31-11G
Put plainly: Biochemical assay: inhibition of RNase activity of IRE1α. To be noted: enzyme 0.325 nM, substrate 100 nM, 20 minutes. The essentials: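 Recombinant IRE1α (0.325 nM final) pre-incubated 30 min at room temperature with compounds (10-point ½-log series, duplicate, 4% DMSO final). Then 100 nM fluorophore/quencher-labelled RNA substrate added in 50 mM Tris, 0.5 mM MgCl2, 10 mM KCl, 2 mM DTT. Urea stop after 20 min; fluorescence read; IC50 from sigmoidal fit.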

Assay [2] concerns ARPE-19 cells stably expressing XBP1 (a.a. 1-376). Put plainly: Cellular XBP1 splicing assay (NanoLuc luciferase, thapsigargin). It counts as cell-based. To be noted: thapsigargin 150 nM. The essentials: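 ARPE-19 cells carrying an XBP1(1-376)-NanoLuc splicing reporter were pretreated with compound (10-point ½-log series, 0.117% DMSO) for 30 min, then stressed with 150 nM thapsigargin for 4 h at 37° C. Luminescence was read, and IC50 values came from sigmoidal fits of percent inhibition of control.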

T1 sequence (O75460 468-977 limits assumed): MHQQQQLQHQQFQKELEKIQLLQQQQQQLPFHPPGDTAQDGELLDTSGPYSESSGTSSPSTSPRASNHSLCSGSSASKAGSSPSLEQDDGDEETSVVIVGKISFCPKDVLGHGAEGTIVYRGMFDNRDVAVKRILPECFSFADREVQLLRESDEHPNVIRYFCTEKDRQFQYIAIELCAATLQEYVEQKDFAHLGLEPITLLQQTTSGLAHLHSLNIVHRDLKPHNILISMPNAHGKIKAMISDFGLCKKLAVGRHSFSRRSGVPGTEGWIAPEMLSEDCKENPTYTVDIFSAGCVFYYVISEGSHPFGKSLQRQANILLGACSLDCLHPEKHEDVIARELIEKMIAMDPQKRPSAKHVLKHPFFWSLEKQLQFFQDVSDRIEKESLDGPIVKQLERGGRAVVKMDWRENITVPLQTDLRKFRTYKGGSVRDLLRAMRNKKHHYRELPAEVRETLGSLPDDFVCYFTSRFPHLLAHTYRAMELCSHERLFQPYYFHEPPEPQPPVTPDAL

For the molecule `CC(CF)NC1CC=C(c2cnc(N)c3c(-c4ccc(NS(=O)(=O)Cc5ccccc5Cl)c(F)c4)nn(C(C)C)c23)CC1` (single isomer, unassigned) [Compound B45, N-(4-(4-amino-7-(4-((1-fluoropropan-2-yl)amino)cyclohex-1-en-1-yl)-14sopropyl-1H-pyrazolo[4,3-c]pyridin-3-yl)-2-fluorophenyl)-1-(2-chlorophenyl)methanesulfonamide], the IC50 came to 3.4 nM in assay [1] and 47 nM in assay [2] (4 hour).

With `COCC(C)N[C@H]1CC[C@H](c2cnc(N)c3c(-c4ccc(NS(=O)(=O)Cc5ccccc5Cl)c(F)c4)nn(C(C)C)c32)CC1` (stereo partly shown) [Compound A58, N-(4-(4-amino-1-isopropyl-7-((1r,4r)-4-((1-methoxypropan-2-yl)amino)cyclohexyl)-1H-pyrazolo[4,3-c]pyridin-3-yl)-2-fluorophenyl)-1-(2-chlorophenyl)methanesulfonamide], the IC50 stood at 0.6 nM in assay [1] and 4.9 nM in assay [2] (Homo sapiens, ARPE-19, 4 h).

On to `COCCN[C@H]1CC[C@H](c2cnc(N)c3c(-c4cc(F)c(NS(=O)(=O)c5ccc(F)c(OC)c5)cc4F)nn(C(C)C)c32)CC1` [Compound A13, N-(4-(4-amino-1-isopropyl-7-((1r,4r)-4-((2-methoxyethyl)amino)cyclohexyl)-1H-pyrazolo[4,3-c]pyridin-3-yl)-2,5-difluorophenyl)-4-fluoro-3-methoxybenzenesulfonamide], for which the IC50 is 17 nM in assay [1] and 78 nM in assay [2] (Homo sapiens, ARPE-19, 4 h).

Take `COCCN[C@H]1CC[C@H](c2cnc(N)c3c(-c4cc(F)c(NS(=O)(=O)c5ccc(F)cc5Cl)cc4F)nn(C(C)C)c32)CC1` [Compound A15, N-(4-(4-amino-1-isopropyl-7-((1r,4r)-4-((2-methoxyethyl)amino)cyclohexyl)-1H-pyrazolo[4,3-c]pyridin-3-yl)-2,5-difluorophenyl)-2-chloro-4-fluorobenzenesulfonamide]: the IC50 in assay [1] was 6.6 nM; in assay [2] (Homo sapiens, ARPE-19, 4 h) it was 13 nM.

With `COCCN[C@H]1CC[C@H](c2cnc(N)c3c(-c4cc(F)c(NS(=O)(=O)c5c(F)cccc5F)cc4F)nn(C(C)C)c32)CC1` [Compound A23, N-(4-(4-amino-1-isopropyl-7-((1r,4r)-4-((2-methoxyethyl)amino)cyclohexyl)-1H-pyrazolo[4,3-c]pyridin-3-yl)-2,5-difluorophenyl)-2,6-difluorobenzenesulfonamide], the IC50 in assay [1] turned out to be 9.7 nM; in assay [2] (Homo sapiens, ARPE-19, 4 h), 160 nM.

`Nc1ncc([C@H]2CC[C@H](NC3COC3)CC2)c2c1c(-c1ccc(NS(=O)(=O)c3ccccc3Cl)c(F)c1)nn2C1CC1` [Compound A56, N-(4-(4-amino-1-cyclopropyl-7-((1r,4r)-4-(oxetan-3-ylamino)cyclohexyl)-1H-pyrazolo[4,3-c]pyridin-3-yl)-2-fluorophenyl)-2-chlorobenzenesulfonamide]: the IC50 was 3.5 nM in assay [1] and 15 nM in assay [2] (Homo sapiens, ARPE-19, 4 h).

Take `COCCN[C@H]1CC[C@H](c2cnc(N)c3c(-c4cc(F)c(NS(=O)(=O)c5ccccc5OC)cc4F)nn(C(C)C)c32)CC1` [Compound A10, N-(4-(4-amino-1-isopropyl-7-((1r,4r)-4-((2-methoxyethyl)amino)cyclohexyl)-1H-pyrazolo[4,3-c]pyridin-3-yl)-2,5-difluorophenyl)-2-methoxybenzenesulfonamide]: the IC50 came to 240 nM in assay [1] and 19 nM in assay [2] (Homo sapiens, ARPE-19, 4 h).

Consider `CC(CF)NC1CC=C(c2cnc(N)c3c(-c4ccc(NS(=O)(=O)Cc5ccccc5Cl)c(F)c4)nn(C(C)C)c23)CC1` (single isomer, unassigned) [Compound B44, N-(4-(4-amino-7-(4-((1-fluoropropan-2-yl)amino)cyclohex-1-en-1-yl)-1-isopropyl-1H-pyrazolo[4,3-c]pyridin-3-yl)-2-fluorophenyl)-1-(2-chlorophenyl)methanesulfonamide], for which the values for the half-maximal inhibitory concentration (IC50) in assay [1] and in assay [2] (4 hour) were 1.6 nM and 10 nM, respectively.
